Converted amounts (≈) assume the structure as drawn. Where two headings read alike, the source gives them in different places.
How the values were obtained:
Type in all cases: cell-based
[1] = system: Staph. aureus X1.1; assay: standard in vitro agar dilution assay (MIC); conditions: Staphylococcus aureus; Staph. aureus strain X1.1; read-out: Agar Dilution MIC
[2] = system: Staph. aureus V41; assay: standard in vitro agar dilution assay (MIC); conditions: Staphylococcus aureus
[3] = system: Staph. aureus X400; assay: standard in vitro agar dilution assay (MIC); conditions: Staphylococcus aureus; Staph. aureus strain X400
[4] = system: Staph. aureus S13E; assay: microbe, parasite or virus in culture; conditions: Staphylococcus aureus, read-out: Agar Dilution MIC
[5] = system: Staph. epi EPI1; assay: standard in vitro agar dilution assay (MIC); conditions: Staph. epi strain EPI1
[6] = system: Staph. epi 222; assay: standard in vitro agar dilution assay (MIC); conditions: Staph. epi strain 222
[7] = system: Strep. A C203; assay: standard in vitro agar dilution assay (MIC); conditions: Strep. A strain C203
[8] = system: Strep. PN PARK; assay: standard in vitro agar dilution assay (MIC); conditions: Strep. PN strain PARK
[9] = system: Strep. D X66; assay: standard in vitro agar dilution assay (MIC); conditions: Strep. D strain X66
[10] = system: Strep. D 9960; assay: standard in vitro agar dilution assay (MIC); conditions: Strep. D strain 9960
[11] = system: E. coli N10; assay: standard in vitro agar dilution assay (MIC); conditions: Escherichia coli
[12] = system: E. coli EC14; assay: standard in vitro agar dilution assay (MIC); conditions: Escherichia coli; E. coli strain EC14; read-out: Agar Dilution MIC
[13] = system: E. coli TEM; assay: standard in vitro agar dilution assay (MIC); conditions: Escherichia coli; E. coli strain TEM; read-out: Agar Dilution MIC
[14] = system: Klebsiella X26; assay: standard in vitro agar dilution assay (MIC); conditions: Klebsiella strain X26; read-out: Agar Dilution MIC
[15] = system: Klebsiella KAE; assay: standard in vitro agar dilution assay (MIC); conditions: read-out: Agar Dilution MIC
[16] = system: Klebsiella X68; assay: standard in vitro agar dilution assay (MIC); conditions: Klebsiella strain X68; read-out: Agar Dilution MIC
[17] = system: Enterobacter aerogenes C32; assay: standard in vitro agar dilution assay (MIC); conditions: Klebsiella aerogenes
[18] = system: Enterobacter cloacae EB5; assay: standard in vitro agar dilution assay (MIC); conditions: Enterobacter cloacae strain EB5; read-out: Agar Dilution MIC
[19] = system: Salmonella X514; assay: standard in vitro agar dilution assay (MIC)
[20] = system: Pseudomonas X528; assay: standard in vitro agar dilution assay (MIC); conditions: Pseudomonas strain X528
From the text: The antibacterial activity of several representative compounds of the invention has been evaluated in standard in vitro agar dilution assays. The following Table presents typical minimum inhibitory concentrations (MIC's) in μg /ml for exemplary compounds when evaluated against typical Gram + and Gram - microorganism.

[21] = system: Pseudomonas X239; assay: standard in vitro agar dilution assay (MIC); conditions: Pseudomonas strain X239
[22] = system: H. influ. 76; assay: standard in vitro agar dilution assay (MIC); conditions: H. influ. strain 76; read-out: Agar Dilution MIC
[23] = system: H. influ. C.L.; assay: standard in vitro agar dilution assay (MIC); conditions: H. influ. strain C.L.; read-out: Agar Dilution MIC
[24] = system: Serratia X99; assay: standard in vitro agar dilution assay (MIC); conditions: Serratia strain X99; read-out: Agar Dilution MIC
[25] = Staph. aureus strain V41, read-out: Agar Dilution MIC
[26] = E. coli strain N10, read-out: Agar Dilution MIC
[27] = Enterobacter aerogenes strain C32, read-out: Agar Dilution MIC
[28] = Salmonella strain X514, read-out: Agar Dilution MIC

Compound | MIC [1] [mg/L] | MIC [2, 25] [mg/L] | MIC [3] [mg/L] | MIC [4] [mg/L] | MIC [5] [mg/L] | MIC [6] [mg/L] | MIC [7] [mg/L] | MIC [8] [mg/L] | MIC [9] [mg/L] | MIC [10] [mg/L] | MIC [11, 26] [mg/L] | MIC [12] [mg/L] | MIC [13] [mg/L] | MIC [14] [mg/L] | MIC ([15]; Klebsiella strain KAE) [mg/L] | MIC [16] [mg/L] | MIC [17, 27] [mg/L] | MIC [20] [mg/L] | MIC [21] [mg/L] | MIC [19, 28] [mg/L] | other results
CO/N=C(\C(=O)NC1C(=O)N2C(C(=O)[O-])=C(C[n+]3ccc4c(c3)ncn4C)CSC12)c1csc(N)n1 (stereo not drawn) [Example 4, syn-7-[2-(2-aminothiazol-4-yl)-2-methoxyiminoacetamido]-3-(1-methyl-1H-imidazolo[4,5-c]pyridinium-5-ylmethyl)-3-cephem-4-carboxylate] | 1 (≈ 1.89 µM) | 8 (≈ 15.1 µM) | 64 (≈ 121 µM) | 8 (≈ 15.1 µM) | 2 (≈ 3.78 µM) | 1 (≈ 1.89 µM) | 0.15 (≈ 0.284 µM) | 0.15 (≈ 0.284 µM) | > 128 | 2 (≈ 3.78 µM) | 0.03 (≈ 0.0568 µM) | < 0.008 | 0.015 (≈ 0.0284 µM) | 0.015 (≈ 0.0284 µM) | 4 (≈ 7.57 µM) | 0.015 (≈ 0.0284 µM) | 0.03 (≈ 0.0568 µM) | 1 (≈ 1.89 µM) | 2 (≈ 3.78 µM) |  | MIC [18]: 0.03 mg/L (≈ 0.0568 µM); MIC ([19]; Salmonella, X514, read-out: Agar Dilution MIC): 0.05 mg/L (≈ 0.0946 µM)
CO/N=C(\C(=O)NC1C(=O)N2C(C(=O)[O-])=C(C[n+]3ccc4ncn(C)c4c3)CSC12)c1csc(N)n1 (stereo not drawn) [Example 3, syn-7-[2-(2-Aminothiazol-4-yl)-2-methoxyiminoacetamido]-3-(3-methyl-3H-imidazolo[4,5-c]pyridinium-5-ylmethyl)-3-cephem-4-carboxylate] | 1 (≈ 1.89 µM) | 4 (≈ 7.57 µM) | 64 (≈ 121 µM) | 4 (≈ 7.57 µM) | 2 (≈ 3.78 µM) | 1 (≈ 1.89 µM) | < 0.008 | < 0.008 | > 128 | 4 (≈ 7.57 µM) |  | < 0.008 | < 0.008 | < 0.008 | 4 (≈ 7.57 µM) | 0.03 (≈ 0.0568 µM) |  | 1 (≈ 1.89 µM) | 2 (≈ 3.78 µM) | < 0.008 | 
CC(C)(O/N=C(\C(=O)N[C@@H]1C(=O)N2C(C(=O)[O-])=C(C[n+]3ccccc3)CS[C@H]12)c1csc(N)n1)C(=O)O [Ceftazidime, ceftazidime, reference compound] | 8 (≈ 14.6 µM) |  | 128 (≈ 234 µM) | 32 (≈ 58.5 µM) | 16 (≈ 29.3 µM) | 16 (≈ 29.3 µM) |  |  | > 128 | 16 (≈ 29.3 µM) |  |  |  |  |  |  |  | 2 (≈ 3.66 µM) | 2 (≈ 3.66 µM) |  | MIC ([2]; V41, read-out: Agar Dilution MIC): 32 mg/L (≈ 58.5 µM); MIC ([11]; N10, read-out: Agar Dilution MIC): 0.25 mg/L (≈ 0.457 µM); MIC ([15]; Klebsiella): 0.5 mg/L (≈ 0.915 µM); MIC ([17]; C32, read-out: Agar Dilution MIC): 0.25 mg/L (≈ 0.457 µM)
CO/N=C(\C(=O)NC1C(=O)N2C(C(=O)[O-])=C(C[n+]3ccc4c(c3)nc(C)n4C)CSC12)c1csc(N)n1 (stereo not drawn) [Example 6, syn-7-[2-(2-aminothiazol-4-yl)-2-methoxyiminoacetamido]-3-(1,2-dimethyl-1H-imidazolo[4,5-c]pyridinium-5-ylmethyl)-3-cephem-4-carboxylate] | 2 (≈ 3.69 µM) | 16 (≈ 29.5 µM) | 32 (≈ 59 µM) | 8 (≈ 14.7 µM) | 2 (≈ 3.69 µM) | 1 (≈ 1.84 µM) | < 0.008 | < 0.008 | > 128 | 4 (≈ 7.37 µM) | 0.03 (≈ 0.0553 µM) | < 0.008 | < 0.008 | < 0.008 | 2 (≈ 3.69 µM) | 0.03 (≈ 0.0553 µM) | 0.03 (≈ 0.0553 µM) | 4 (≈ 7.37 µM) | 4 (≈ 7.37 µM) | 0.03 (≈ 0.0553 µM) | 
CO/N=C(\C(=O)NC1C(=O)N2C(C(=O)[O-])=C(C[n+]3ccc4nc(C)n(C)c4c3)CSC12)c1csc(N)n1 (stereo not drawn) [Example 7, syn-7-[2-(2-aminothiazol-4-yl)-2-methoxyiminoacetamido]-3-(2,3-dimethyl-3H-imidazolo[4,5-c]pyridinium-5-ylmethyl)-3-cephem-4-carboxylate] | 2 (≈ 3.69 µM) |  | 128 (≈ 236 µM) |  | 4 (≈ 7.37 µM) | 2 (≈ 3.69 µM) | 0.015 (≈ 0.0276 µM) |  | > 128 | 4 (≈ 7.37 µM) | 0.03 (≈ 0.0553 µM) | 0.015 (≈ 0.0276 µM) | 0.015 (≈ 0.0276 µM) | 0.015 (≈ 0.0276 µM) | 2 (≈ 3.69 µM) | 0.03 (≈ 0.0553 µM) |  |  |  |  | MIC [22]: 0.03 mg/L (≈ 0.0553 µM)
CCc1nc2c[n+](CC3=C(C(=O)[O-])N4C(=O)C(NC(=O)/C(=N\OC)c5csc(N)n5)C4SC3)ccc2s1 (stereo not drawn) [Example 14, syn-7-[2-(2-aminothiazol-4-yl)-2-methoxyiminoacetamido]-3-(2-ethylthiazolo[4,5-c]pyridinium-5-ylmethyl)-3-cephem-4-carboxylate] | 1 (≈ 1.79 µM) | 4 (≈ 7.15 µM) | 32 (≈ 57.2 µM) | 4 (≈ 7.15 µM) | 2 (≈ 3.57 µM) | 1 (≈ 1.79 µM) | < 0.008 | < 0.008 | > 128 | 4 (≈ 7.15 µM) | 0.03 (≈ 0.0536 µM) | 0.015 (≈ 0.0268 µM) | 0.015 (≈ 0.0268 µM) | < 0.008 | 2 (≈ 3.57 µM) | 0.03 (≈ 0.0536 µM) |  | 4 (≈ 7.15 µM) | 4 (≈ 7.15 µM) |  | MIC [22]: 0.015 mg/L (≈ 0.0268 µM)
CO/N=C(\C(=O)NC1C(=O)N2C(C(=O)[O-])=C(C[n+]3ccc4[nH]c(C)nc4c3)CSC12)c1csc(N)n1 (stereo not drawn) [Example 5, syn-7-[2-(2-aminothiazol-4-yl)-2-methoxyiminoacetamido]-3-(2-methyl-1H-imidazolo[4,5-c]pyridinium-5-ylmethyl)-3-cephem-4-carboxylate] | 2 (≈ 3.78 µM) | 8 (≈ 15.1 µM) | 32 (≈ 60.5 µM) | 8 (≈ 15.1 µM) | 4 (≈ 7.57 µM) | 1 (≈ 1.89 µM) | < 0.008 | < 0.008 | > 128 | 8 (≈ 15.1 µM) | 0.03 (≈ 0.0568 µM) | < 0.008 | < 0.008 | < 0.008 | 2 (≈ 3.78 µM) | 0.015 (≈ 0.0284 µM) | 0.03 (≈ 0.0568 µM) | 2 (≈ 3.78 µM) | 2 (≈ 3.78 µM) | < 0.008 | MIC [23]: 0.015 mg/L (≈ 0.0284 µM); MIC [22]: 0.015 mg/L (≈ 0.0284 µM); MIC [24]: 0.03 mg/L (≈ 0.0568 µM)
CO/N=C(\C(=O)NC1C(=O)N2C(C(=O)[O-])=C(C[n+]3ccc4scnc4c3)CSC12)c1csc(N)n1 (stereo not drawn) [Example 12, syn-7-[2-(2-aminothiazol-4-yl)-2-methoxyiminoacetamido]-3-(thiazolo[4,5-c]pyridinium-5-ylmethyl)-3-cephem-4-carboxylate] | 1 (≈ 1.88 µM) | 2 (≈ 3.76 µM) | 2 (≈ 3.76 µM) | 8 (≈ 15 µM) | 2 (≈ 3.76 µM) |  | 0.015 (≈ 0.0282 µM) | 0.015 (≈ 0.0282 µM) | 128 (≈ 241 µM) | 4 (≈ 7.52 µM) | 0.03 (≈ 0.0564 µM) | 0.015 (≈ 0.0282 µM) |  | 0.015 (≈ 0.0282 µM) | 4 (≈ 7.52 µM) | 0.03 (≈ 0.0564 µM) | 0.03 (≈ 0.0564 µM) | 1 (≈ 1.88 µM) | 2 (≈ 3.76 µM) | 0.03 (≈ 0.0564 µM) | 
CO/N=C(\C(=O)NC1C(=O)N2C(C(=O)[O-])=C(C[n+]3ccc4sc(C)nc4c3)CSC12)c1csc(N)n1 (stereo not drawn) [Example 13] | 1 (≈ 1.83 µM) | 8 (≈ 14.7 µM) | 32 (≈ 58.6 µM) | 8 (≈ 14.7 µM) | 2 (≈ 3.67 µM) | 1 (≈ 1.83 µM) | 0.015 (≈ 0.0275 µM) | < 0.008 | > 128 | 8 (≈ 14.7 µM) | 0.03 (≈ 0.055 µM) | 0.015 (≈ 0.0275 µM) | 0.015 (≈ 0.0275 µM) | 0.015 (≈ 0.0275 µM) | 2 (≈ 3.67 µM) | 0.03 (≈ 0.055 µM) | 0.03 (≈ 0.055 µM) | 2 (≈ 3.67 µM) | 8 (≈ 14.7 µM) |  | MIC [23]: 0.03 mg/L (≈ 0.055 µM); MIC [22]: 0.03 mg/L (≈ 0.055 µM)
CO/N=C(\C(=O)NC1C(=O)N2C(C(=O)[O-])=C(C[n+]3ccc4[nH]cnc4c3)CSC12)c1csc(N)n1 (stereo not drawn) [Example 2, syn-7-[2-(2-Aminotiazol-4-yl)-2-methoxyiminoacetamido]-3-(1H-imidazolo[4,5-c]pyridinium-5-ylmethyl)-3-cephem-4-carboxylate] | 1 (≈ 1.94 µM) | 8 (≈ 15.5 µM) | 64 (≈ 124 µM) | 8 (≈ 15.5 µM) | 4 (≈ 7.77 µM) | 1 (≈ 1.94 µM) | < 0.008 | < 0.008 |  | 2 (≈ 3.89 µM) | 0.015 (≈ 0.0292 µM) | < 0.008 | < 0.008 | < 0.008 | 4 (≈ 7.77 µM) | < 0.008 | 0.03 (≈ 0.0583 µM) | 1 (≈ 1.94 µM) | 2 (≈ 3.89 µM) | < 0.008 | MIC [23]: 0.015 mg/L (≈ 0.0292 µM); MIC [22]: 0.015 mg/L (≈ 0.0292 µM); MIC [24]: 0.015 mg/L (≈ 0.0292 µM)

Source: patent US4692443A, “3-bicyclicpyridinium-methyl cephalosporins” (Eli Lilly and Company, priority 1984, dated 1987)
